Test results reported in ChEMBL document CHEMBL4507287, “Data for DCP probe MRL-650” (2021).

How the values were obtained:
[1] = biological target: Serine/threonine-protein kinase 35 (Homo sapiens) (UniProt Q8TDR2); details: Compound concentration 1000.0 nM
[2] = biological target: MAP kinase-activated protein kinase 2 (Homo sapiens) (UniProt P49137); details: Compound concentration 1000.0 nM
[3] = biological target: Serine/threonine-protein kinase haspin (Homo sapiens) (UniProt Q8TF76); details: Compound concentration 1000.0 nM
[4] = biological target: Serine/threonine-protein kinase TAO1 (Homo sapiens) (UniProt Q7L7X3); details: Compound concentration 1000.0 nM
[5] = biological target: Receptor-type tyrosine-protein kinase FLT3 (Homo sapiens) (UniProt P36888); details: Compound concentration 1000.0 nM
[6] = biological target: SRSF protein kinase 1 (Homo sapiens) (UniProt Q96SB4); details: Compound concentration 1000.0 nM
[7] = biological target: Serine/threonine-protein kinase Nek4 (Homo sapiens) (UniProt P51957); details: Compound concentration 1000.0 nM
[8] = biological target: Tyrosine-protein kinase HCK (Homo sapiens) (UniProt P08631); details: Compound concentration 1000.0 nM
[9] = biological target: Cyclin-dependent kinase 11B (Homo sapiens) (UniProt P21127); details: Compound concentration 1000.0 nM
[10] = test system: Phosphatidylinositol 4,5-bisphosphate 3-kinase catalytic subunit alpha isoform (Homo sapiens), P42336 [Q546K]; details: Compound concentration 1000.0 nM
[11] = biological target: Ephrin type-B receptor 1 (Homo sapiens) (UniProt P54762); details: Compound concentration 1000.0 nM
[12] = biological target: Mitogen-activated protein kinase 4 (Homo sapiens) (UniProt P31152); details: Compound concentration 1000.0 nM
[13] = biological target: GABA-A receptor; anion channel (Rattus norvegicus) (UniProt O09028+P15431+P18506+P18508+P19969+P20236+P23574+P23576+P28471+P28473+P30191+P62813+P63079+P63138+Q91ZM7+Q9ES14); details: Compound concentration 10.0 uM
[14] = biological target: Dual specificity tyrosine-phosphorylation-regulated kinase 2 (Homo sapiens) (UniProt Q92630); details: Compound concentration 1000.0 nM
[15] = biological target: Mitogen-activated protein kinase 13 (Homo sapiens) (UniProt O15264); details: Compound concentration 1000.0 nM
[16] = biological target: MAP/microtubule affinity-regulating kinase 4 (Homo sapiens) (UniProt Q96L34); details: Compound concentration 1000.0 nM
[17] = biological target: Serine/threonine-protein kinase PAK 3 (Homo sapiens) (UniProt O75914); details: Compound concentration 1000.0 nM
[18] = biological target: Proto-oncogene tyrosine-protein kinase receptor Ret (Homo sapiens) (UniProt P07949); details: Compound concentration 1000.0 nM
[19] = biological target: Serine/threonine-protein kinase PLK3 (Homo sapiens) (UniProt Q9H4B4); details: Compound concentration 1000.0 nM
[20] = biological target: Serine/threonine-protein kinase PRP4 homolog (Homo sapiens) (UniProt Q13523); details: Compound concentration 1000.0 nM
[21] = biological target: Bone morphogenetic protein receptor type-1A (Homo sapiens) (UniProt P36894); details: Compound concentration 1000.0 nM
[22] = biological target: Serine/threonine-protein kinase pim-2 (Homo sapiens) (UniProt Q9P1W9); details: Compound concentration 1000.0 nM
[23] = biological target: 5-hydroxytryptamine receptor 5A (Homo sapiens) (UniProt P47898); details: Compound concentration 10.0 uM
[24] = biological target: RAF proto-oncogene serine/threonine-protein kinase (Homo sapiens) (UniProt P04049); details: Compound concentration 1000.0 nM
[25] = test system: Proto-oncogene tyrosine-protein kinase receptor Ret (Homo sapiens), P07949 [M918T]; details: Compound concentration 1000.0 nM
[26] = biological target: Serine/threonine-protein kinase MRCK alpha (Homo sapiens) (UniProt Q5VT25); details: Compound concentration 1000.0 nM
[27] = biological target: Tyrosine-protein kinase Lck (Homo sapiens) (UniProt P06239); details: Compound concentration 1000.0 nM
[28] = biological target: Serine/threonine-protein kinase 17B (Homo sapiens) (UniProt O94768); details: Compound concentration 1000.0 nM
[29] = biological target: Testis-specific serine/threonine-protein kinase 1 (Homo sapiens) (UniProt Q9BXA7); details: Compound concentration 1000.0 nM
[30] = biological target: Serine/threonine-protein kinase 16 (Homo sapiens) (UniProt O75716); details: Compound concentration 1000.0 nM
[31] = biological target: 5-hydroxytryptamine receptor 2C (Homo sapiens) (UniProt P28335); details: Compound concentration 10.0 uM
[32] = biological target: Ephrin type-A receptor 2 (Homo sapiens) (UniProt P29317); details: Compound concentration 1000.0 nM
[33] = test system: Phosphatidylinositol 4,5-bisphosphate 3-kinase catalytic subunit alpha isoform (Homo sapiens), P42336 [C420R]; details: Compound concentration 1000.0 nM
[34] = biological target: Cyclin-dependent kinase 3 (Homo sapiens) (UniProt Q00526); details: Compound concentration 1000.0 nM
[35] = test system: Hepatocyte growth factor receptor (Homo sapiens), P08581 [M1250T]; details: Compound concentration 1000.0 nM
[36] = biological target: Mitogen-activated protein kinase kinase kinase 20 (Homo sapiens) (UniProt Q9NYL2); details: Compound concentration 1000.0 nM
[37] = biological target: Mitogen-activated protein kinase kinase kinase 1 (Homo sapiens) (UniProt Q13233); details: Compound concentration 1000.0 nM
[38] = biological target: Protein kinase C iota type (Homo sapiens) (UniProt P41743); details: Compound concentration 1000.0 nM
[39] = test system: Receptor-type tyrosine-protein kinase FLT3 (Homo sapiens), P36888 [R834Q]; details: Compound concentration 1000.0 nM
[40] = biological target: Tyrosine-protein kinase ITK/TSK (Homo sapiens) (UniProt Q08881); details: Compound concentration 1000.0 nM
[41] = biological target: Mitogen-activated protein kinase kinase kinase 2 (Homo sapiens) (UniProt Q9Y2U5); details: Compound concentration 1000.0 nM
[42] = biological target: Dual specificity tyrosine-phosphorylation-regulated kinase 1B (Homo sapiens) (UniProt Q9Y463); details: Compound concentration 1000.0 nM
[43] = test system: Epidermal growth factor receptor (Homo sapiens), P00533 [L858R,T790M]; details: Compound concentration 1000.0 nM

Sequence of Serine/threonine-protein kinase TAO1 (Homo sapiens) (Q7L7X3 whole entry): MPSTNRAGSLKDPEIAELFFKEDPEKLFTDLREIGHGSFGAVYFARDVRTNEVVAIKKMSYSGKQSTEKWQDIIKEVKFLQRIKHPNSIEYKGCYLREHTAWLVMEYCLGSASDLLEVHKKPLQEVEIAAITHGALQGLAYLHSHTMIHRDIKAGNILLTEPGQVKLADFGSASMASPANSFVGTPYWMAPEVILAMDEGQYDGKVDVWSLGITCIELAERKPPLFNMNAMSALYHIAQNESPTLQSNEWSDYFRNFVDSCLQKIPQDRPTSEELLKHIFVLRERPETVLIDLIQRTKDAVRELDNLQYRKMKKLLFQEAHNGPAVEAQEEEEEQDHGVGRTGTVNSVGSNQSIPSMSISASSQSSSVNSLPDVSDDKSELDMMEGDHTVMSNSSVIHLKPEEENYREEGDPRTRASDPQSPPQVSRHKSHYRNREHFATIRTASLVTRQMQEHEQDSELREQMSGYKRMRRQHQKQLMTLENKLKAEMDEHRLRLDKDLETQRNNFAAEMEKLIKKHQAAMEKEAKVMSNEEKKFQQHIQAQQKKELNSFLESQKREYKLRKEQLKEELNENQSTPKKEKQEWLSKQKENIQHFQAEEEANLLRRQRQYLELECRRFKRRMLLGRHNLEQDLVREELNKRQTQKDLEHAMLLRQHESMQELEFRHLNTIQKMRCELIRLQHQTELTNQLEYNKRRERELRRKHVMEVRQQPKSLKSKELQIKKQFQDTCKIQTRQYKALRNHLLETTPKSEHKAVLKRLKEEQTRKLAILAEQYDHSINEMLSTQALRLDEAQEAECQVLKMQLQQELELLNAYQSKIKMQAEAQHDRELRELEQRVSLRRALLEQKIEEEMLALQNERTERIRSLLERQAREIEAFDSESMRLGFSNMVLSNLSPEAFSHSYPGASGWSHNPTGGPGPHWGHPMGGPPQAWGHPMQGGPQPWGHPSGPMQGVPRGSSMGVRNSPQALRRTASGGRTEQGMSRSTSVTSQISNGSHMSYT
Sequence of Serine/threonine-protein kinase PAK 3 (Homo sapiens) (O75914 whole entry, looked up): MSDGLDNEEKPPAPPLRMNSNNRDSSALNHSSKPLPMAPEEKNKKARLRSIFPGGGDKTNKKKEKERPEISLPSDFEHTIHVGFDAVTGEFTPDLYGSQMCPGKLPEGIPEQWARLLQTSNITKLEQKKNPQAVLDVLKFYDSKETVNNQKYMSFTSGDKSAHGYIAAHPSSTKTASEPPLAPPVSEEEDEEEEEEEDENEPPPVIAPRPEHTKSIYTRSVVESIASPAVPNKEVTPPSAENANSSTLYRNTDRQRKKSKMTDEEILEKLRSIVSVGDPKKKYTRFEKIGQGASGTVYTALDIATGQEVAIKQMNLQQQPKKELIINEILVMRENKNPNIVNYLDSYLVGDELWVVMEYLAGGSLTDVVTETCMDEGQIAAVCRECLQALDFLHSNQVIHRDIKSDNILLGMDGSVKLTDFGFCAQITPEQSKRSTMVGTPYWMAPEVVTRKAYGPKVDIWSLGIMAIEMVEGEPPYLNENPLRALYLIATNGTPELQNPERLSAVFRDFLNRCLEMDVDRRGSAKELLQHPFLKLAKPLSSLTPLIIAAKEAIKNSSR
Sequence of Cyclin-dependent kinase 3 (Homo sapiens) (Q00526 whole entry, looked up): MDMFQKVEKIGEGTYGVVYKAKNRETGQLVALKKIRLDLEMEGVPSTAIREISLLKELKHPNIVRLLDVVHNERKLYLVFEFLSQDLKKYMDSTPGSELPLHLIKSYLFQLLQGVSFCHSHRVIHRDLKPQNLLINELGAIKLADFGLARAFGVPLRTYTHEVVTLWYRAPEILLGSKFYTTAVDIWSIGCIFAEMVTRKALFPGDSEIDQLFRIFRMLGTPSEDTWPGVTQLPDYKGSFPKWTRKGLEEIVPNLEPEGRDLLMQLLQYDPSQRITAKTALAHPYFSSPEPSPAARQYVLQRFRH
Sequence of Dual specificity tyrosine-phosphorylation-regulated kinase 2 (Homo sapiens) (Q92630 whole entry): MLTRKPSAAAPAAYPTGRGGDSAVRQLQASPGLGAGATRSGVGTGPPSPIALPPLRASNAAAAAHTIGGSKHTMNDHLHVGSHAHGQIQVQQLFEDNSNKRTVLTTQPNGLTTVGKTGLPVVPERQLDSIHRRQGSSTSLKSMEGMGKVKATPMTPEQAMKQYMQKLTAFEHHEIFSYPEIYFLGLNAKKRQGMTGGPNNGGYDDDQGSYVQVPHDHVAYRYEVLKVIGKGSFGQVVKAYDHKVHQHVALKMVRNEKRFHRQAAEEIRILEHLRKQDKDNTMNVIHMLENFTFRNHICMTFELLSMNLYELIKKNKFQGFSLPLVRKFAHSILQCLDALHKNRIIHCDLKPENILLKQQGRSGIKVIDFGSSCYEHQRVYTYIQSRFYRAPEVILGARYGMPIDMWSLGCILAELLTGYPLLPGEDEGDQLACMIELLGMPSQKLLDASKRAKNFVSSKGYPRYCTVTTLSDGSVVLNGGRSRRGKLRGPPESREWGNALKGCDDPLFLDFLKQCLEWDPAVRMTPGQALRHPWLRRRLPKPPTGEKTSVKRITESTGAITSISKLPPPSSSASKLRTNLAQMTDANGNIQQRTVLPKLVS
Sequence of Tyrosine-protein kinase Lck (Homo sapiens) (P06239 2-509 limits assumed): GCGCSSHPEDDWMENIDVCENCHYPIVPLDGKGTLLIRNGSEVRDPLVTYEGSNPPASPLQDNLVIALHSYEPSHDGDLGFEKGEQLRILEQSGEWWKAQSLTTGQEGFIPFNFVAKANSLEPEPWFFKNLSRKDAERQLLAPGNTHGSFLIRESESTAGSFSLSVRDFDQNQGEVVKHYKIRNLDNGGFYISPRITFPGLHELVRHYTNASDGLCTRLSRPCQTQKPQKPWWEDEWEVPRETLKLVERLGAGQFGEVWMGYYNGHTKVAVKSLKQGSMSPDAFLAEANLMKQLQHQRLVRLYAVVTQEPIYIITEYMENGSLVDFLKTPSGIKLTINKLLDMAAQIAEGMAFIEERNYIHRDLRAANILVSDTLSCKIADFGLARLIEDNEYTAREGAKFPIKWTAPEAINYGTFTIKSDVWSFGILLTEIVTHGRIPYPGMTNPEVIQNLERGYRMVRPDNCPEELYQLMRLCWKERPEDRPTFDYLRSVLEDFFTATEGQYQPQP
Sequence of Serine/threonine-protein kinase 35 (Homo sapiens) (Q8TDR2 whole entry): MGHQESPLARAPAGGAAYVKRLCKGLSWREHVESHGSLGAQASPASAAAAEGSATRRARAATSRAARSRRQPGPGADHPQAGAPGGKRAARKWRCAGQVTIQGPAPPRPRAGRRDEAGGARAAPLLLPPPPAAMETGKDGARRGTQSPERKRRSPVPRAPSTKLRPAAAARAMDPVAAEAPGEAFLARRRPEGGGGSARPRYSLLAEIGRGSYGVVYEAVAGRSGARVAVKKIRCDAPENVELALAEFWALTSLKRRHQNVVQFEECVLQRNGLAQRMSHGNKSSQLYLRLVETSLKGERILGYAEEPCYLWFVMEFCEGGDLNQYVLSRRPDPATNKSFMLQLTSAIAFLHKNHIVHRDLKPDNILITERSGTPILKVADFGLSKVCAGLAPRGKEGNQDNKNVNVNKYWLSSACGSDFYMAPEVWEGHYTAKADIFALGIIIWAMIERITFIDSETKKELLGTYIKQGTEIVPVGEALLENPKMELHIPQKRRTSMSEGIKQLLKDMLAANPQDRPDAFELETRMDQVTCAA
Sequence of MAP kinase-activated protein kinase 2 (Homo sapiens) (P49137 whole entry, looked up): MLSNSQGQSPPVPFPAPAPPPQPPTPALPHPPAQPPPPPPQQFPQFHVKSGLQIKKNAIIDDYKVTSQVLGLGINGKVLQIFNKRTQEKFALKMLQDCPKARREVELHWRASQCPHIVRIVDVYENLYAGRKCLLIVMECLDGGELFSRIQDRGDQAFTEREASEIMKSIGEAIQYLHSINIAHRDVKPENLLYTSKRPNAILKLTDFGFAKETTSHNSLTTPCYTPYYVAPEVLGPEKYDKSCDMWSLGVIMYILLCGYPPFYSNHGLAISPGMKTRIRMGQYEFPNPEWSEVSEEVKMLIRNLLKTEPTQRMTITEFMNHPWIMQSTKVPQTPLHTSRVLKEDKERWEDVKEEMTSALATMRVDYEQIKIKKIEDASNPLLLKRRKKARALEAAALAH
Sequence of SRSF protein kinase 1 (Homo sapiens) (Q96SB4 whole entry): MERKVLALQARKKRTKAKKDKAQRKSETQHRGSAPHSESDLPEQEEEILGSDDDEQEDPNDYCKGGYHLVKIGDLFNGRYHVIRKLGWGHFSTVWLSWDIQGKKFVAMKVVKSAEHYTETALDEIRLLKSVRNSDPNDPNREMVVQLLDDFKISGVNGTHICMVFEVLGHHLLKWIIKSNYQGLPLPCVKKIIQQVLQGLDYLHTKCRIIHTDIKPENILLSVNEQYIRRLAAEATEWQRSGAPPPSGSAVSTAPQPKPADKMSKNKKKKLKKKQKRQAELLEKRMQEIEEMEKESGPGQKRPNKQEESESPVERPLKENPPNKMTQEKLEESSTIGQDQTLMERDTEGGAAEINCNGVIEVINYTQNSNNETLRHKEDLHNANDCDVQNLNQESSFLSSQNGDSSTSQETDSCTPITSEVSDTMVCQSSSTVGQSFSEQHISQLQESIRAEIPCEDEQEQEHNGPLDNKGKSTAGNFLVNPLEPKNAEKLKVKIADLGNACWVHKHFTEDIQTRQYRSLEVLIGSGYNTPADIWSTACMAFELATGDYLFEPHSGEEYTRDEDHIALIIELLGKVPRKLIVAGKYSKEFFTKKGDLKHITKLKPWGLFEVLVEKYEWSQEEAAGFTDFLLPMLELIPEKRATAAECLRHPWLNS
Sequence of Serine/threonine-protein kinase 17B (Homo sapiens) (O94768 whole entry): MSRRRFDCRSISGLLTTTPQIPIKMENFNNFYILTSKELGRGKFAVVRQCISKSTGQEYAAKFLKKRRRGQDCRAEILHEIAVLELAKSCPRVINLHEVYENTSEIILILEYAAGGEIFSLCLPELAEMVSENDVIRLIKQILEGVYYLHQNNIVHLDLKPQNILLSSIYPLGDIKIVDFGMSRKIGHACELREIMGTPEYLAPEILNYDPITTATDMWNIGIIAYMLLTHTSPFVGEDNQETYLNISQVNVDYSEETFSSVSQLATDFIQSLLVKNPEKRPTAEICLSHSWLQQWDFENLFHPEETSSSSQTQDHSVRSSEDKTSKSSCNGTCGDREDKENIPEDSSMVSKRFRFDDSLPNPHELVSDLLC

## CC(=O)c1c(NS(C)(=O)=O)c2cc(-c3ccc(Cl)cc3)c(-c3ccc(Cl)cc3Cl)nc2n(C)c1=O [MRL-CB1-NC]
[1]
  residual activity: 100%
[2]
  residual activity: 80%
[3]
  residual activity: 92%
[4]
  residual activity: 92%
[5]
  residual activity: 96%
[6]
  residual activity: 100%
[7]
  residual activity: 100%
[8]
  residual activity: 100%
[9]
  residual activity: 84%
[10]
  residual activity: 86%
[11]
  residual activity: 100%
[12]
  residual activity: 100%
[13]
  inhibition: 60.9%
[14]
  residual activity: 93%
[15]
  residual activity: 97%
[16]
  residual activity: 100%
[17]
  residual activity: 100%
[18]
  residual activity: 93%
[19]
  residual activity: 89%
[20]
  residual activity: 83%
[21]
  residual activity: 95%
[22]
  residual activity: 100%
[23]
  inhibition: 39.9%
[24]
  residual activity: 100%
[25]
  residual activity: 100%
[26]
  residual activity: 95%
[27]
  residual activity: 100%
[28]
  residual activity: 100%
[29]
  residual activity: 100%
[30]
  residual activity: 100%
[31]
  inhibition: 81.8%
[32]
  residual activity: 100%
[33]
  residual activity: 93%
[34]
  residual activity: 100%
[35]
  residual activity: 90%
[36]
  residual activity: 92%
[37]
  residual activity: 94%
[38]
  residual activity: 100%
[39]
  residual activity: 100%
[40]
  residual activity: 97%
[41]
  residual activity: 93%
[42]
  residual activity: 100%
[43]
  residual activity: 89%

## CC(=O)Nc1c(C(C)=O)c(=O)n(C)c2nc(-c3ccc(Cl)cc3Cl)c(-c3ccc(Cl)cc3)cc12 [NAPHTHYRIDINONE]
[1]
  residual activity: 100%
[2]
  residual activity: 100%
[3]
  residual activity: 100%
[4]
  residual activity: 89%
[5]
  residual activity: 100%
[6]
  residual activity: 100%
[7]
  residual activity: 100%
[8]
  residual activity: 100%
[9]
  residual activity: 83%
[10]
  residual activity: 100%
[11]
  residual activity: 100%
[12]
  residual activity: 79%
[13]
  inhibition: 30.2%
[14]
  residual activity: 100%
[15]
  residual activity: 100%
[16]
  residual activity: 100%
[17]
  residual activity: 100%
[18]
  residual activity: 100%
[19]
  residual activity: 100%
[20]
  residual activity: 100%
[21]
  residual activity: 85%
[22]
  residual activity: 100%
[23]
  inhibition: 14.3%
[24]
  residual activity: 100%
[25]
  residual activity: 100%
[26]
  residual activity: 100%
[27]
  residual activity: 100%
[28]
  residual activity: 100%
[29]
  residual activity: 100%
[30]
  residual activity: 100%
[31]
  inhibition: 17.5%
[32]
  residual activity: 100%
[33]
  residual activity: 88%
[34]
  residual activity: 100%
[35]
  residual activity: 100%
[36]
  residual activity: 100%
[37]
  residual activity: 100%
[38]
  residual activity: 100%
[39]
  residual activity: 100%
[40]
  residual activity: 100%
[41]
  residual activity: 100%
[42]
  residual activity: 35%
[43]
  residual activity: 100%
